Experiments:
Assay type in all cases: biochemical
[1] = biological target: T1, human Axl (473-end) (Homo sapiens, UniProt P30530); experiment: Kinase enzymatic activity assay ([33P]-ATP phosphate transfer), Axl; conditions: inhibitory activity on Axl; class symbols
T1 construct: GST (N); made in house; host or cells: Sf9 insect cells (baculovirus)
T1 sequence (P30530 473-894 limits assumed): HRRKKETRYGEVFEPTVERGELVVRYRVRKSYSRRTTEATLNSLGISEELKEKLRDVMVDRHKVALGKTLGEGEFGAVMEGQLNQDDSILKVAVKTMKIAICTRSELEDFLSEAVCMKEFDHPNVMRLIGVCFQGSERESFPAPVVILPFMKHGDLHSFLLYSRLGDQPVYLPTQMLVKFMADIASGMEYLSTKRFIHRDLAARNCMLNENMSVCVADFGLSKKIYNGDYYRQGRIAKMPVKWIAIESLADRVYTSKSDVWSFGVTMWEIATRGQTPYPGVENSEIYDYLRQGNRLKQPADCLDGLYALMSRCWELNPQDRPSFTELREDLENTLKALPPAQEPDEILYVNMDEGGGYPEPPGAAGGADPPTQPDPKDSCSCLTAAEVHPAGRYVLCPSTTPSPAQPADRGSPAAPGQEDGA
In short: (§1)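 Kinases were N-terminal GST-tagged constructs expressed in Sf9 cells, with poly(Glu:Tyr 4:1) as substrate. Reactions ran in MOPS buffer pH 7.2 with MgCl2 and [33P]-ATP (250 μM cocktail stock) for 30 min at room temperature. Filter-bound radioactivity gave % inhibition, and IC50 was taken from serial dilutions.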

[2] = biological target: T2, Recombinant human Tyro3 (455-end) (Homo sapiens, UniProt Q06418); experiment: Kinase enzymatic activity assay ([33P]-ATP phosphate transfer), Tyro3; conditions: inhibitory activity on Tyro3; class symbols
T2 construct: GST (N); made in house; host or cells: Sf9 insect cells (baculovirus)
T2 sequence (Q06418 455-890 limits assumed): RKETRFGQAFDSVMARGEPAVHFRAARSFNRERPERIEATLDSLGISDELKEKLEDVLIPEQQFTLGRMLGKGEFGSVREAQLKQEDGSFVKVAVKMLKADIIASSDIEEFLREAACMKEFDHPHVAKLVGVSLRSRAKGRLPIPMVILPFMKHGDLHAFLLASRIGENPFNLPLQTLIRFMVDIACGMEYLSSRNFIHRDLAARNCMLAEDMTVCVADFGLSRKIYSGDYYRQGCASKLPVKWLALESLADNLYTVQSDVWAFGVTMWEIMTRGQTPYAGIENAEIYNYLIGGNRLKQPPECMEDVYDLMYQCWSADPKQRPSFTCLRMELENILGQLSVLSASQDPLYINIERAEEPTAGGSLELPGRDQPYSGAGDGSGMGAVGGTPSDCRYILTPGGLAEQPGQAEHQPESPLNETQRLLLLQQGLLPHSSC
In short: as §1

[3] = biological target: T3, human Mer (578-872) (Homo sapiens, UniProt Q12866); experiment: Kinase enzymatic activity assay ([33P]-ATP phosphate transfer), Mer; conditions: inhibitory activity on Mer; class symbols
T3 construct: GST (N); made in house; host or cells: Sf9 insect cells (baculovirus)
T3 sequence (Q12866 578-872): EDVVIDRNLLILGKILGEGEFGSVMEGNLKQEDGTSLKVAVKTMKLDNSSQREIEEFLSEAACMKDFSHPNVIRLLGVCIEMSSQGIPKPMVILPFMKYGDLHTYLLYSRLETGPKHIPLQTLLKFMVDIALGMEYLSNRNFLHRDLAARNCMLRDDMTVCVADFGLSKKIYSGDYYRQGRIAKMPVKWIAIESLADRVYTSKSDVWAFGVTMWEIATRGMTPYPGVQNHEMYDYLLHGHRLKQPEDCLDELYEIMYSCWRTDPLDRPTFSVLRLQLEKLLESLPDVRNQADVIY
In short: as §1

Row | IC50 [1] [nM] | IC50 [2] [nM] | IC50 [3] [nM] | SMILES
1 | 1000 to 10000 | 1000 to 10000 | 1000 to 10000 | Nc1ncc(-c2cnn(C3CCOCC3)c2)cc1-c1ccc(-c2ccccc2)o1 [3-(5-phenylfuran-2-yl)-5-(1-(tetrahydro-2H-pyran-4-yl)-1H-pyrazol-4-yl)pyridin-2-amine]
2 | < 500 | < 500 | < 500 | Nc1ncc(-c2cnn(C3CCNCC3)c2)cc1-c1cc(-c2ccccc2)on1 [3-(5-phenylisoxazol-3-yl)-5-(1-(piperidin-4-yl)-1H-pyrazol-4-yl)pyridin-2-amine]
3 | < 500 | < 500 | 1000 to 10000 | Nc1ncc(-c2cnn(C3CCOCC3)c2)cc1-c1cc(-c2ccccc2)on1 [3-(5-phenylisoxazol-3-yl)-5-(1-(tetrahydro-2H-pyran-4-yl)-1H-pyrazol-4-yl)pyridin-2-amine]
4 | < 500 | < 500 | < 500 | Nc1ncc(-c2cnn(C3CCNCC3)c2)cc1-c1ncc(-c2ccccc2)o1 [3-(5-phenyloxazol-2-yl)-5-(1-(piperidin-4-yl)-1H-pyrazol-4-yl)pyridin-2-amine]
5 | < 500 | < 500 | > 10000 | Nc1ncc(-c2cnn(C3CCOCC3)c2)cc1-c1ncc(-c2ccccc2)o1 [3-(5-phenyloxazol-2-yl)-5-(1-(tetrahydro-2H-pyran-4-yl)-1H-pyrazol-4-yl)pyridin-2-amine]
6 | < 500 | < 500 | < 500 | CCN1CCC(n2cc(-c3cnc(N)c(-c4nc(-c5ccccc5)no4)c3)cn2)CC1 [5-(1-(1-ethylpiperidin-4-yl)-1H-pyrazol-4-yl)-3-(3-phenyl-1,2,4-oxadiazol-5-yl)pyridin-2-amine]
7 | < 500 | < 500 | < 500 | CCN1CCC(n2cc(-c3cnc(N)c(-c4ncc(-c5ccccc5)o4)c3)cn2)CC1 [5-(1-(1-ethylpiperidin-4-yl)-1H-pyrazol-4-yl)-3-(5-phenyloxazol-2-yl)pyridin-2-amine]
8 | < 500 | < 500 | < 500 | CN1CCC(n2cc(-c3cnc(N)c(-c4nc(-c5ccccc5)no4)c3)cn2)CC1 [5-(1-(1-methylpiperidin-4-yl)-1H-pyrazol-4-yl)-3-(3-phenyl-1,2,4-oxadiazol-5-yl)pyridin-2-amine]
9 | < 500 | < 500 | 500 to 1000 | CN1CCC(n2cc(-c3cnc(N)c(-c4noc(-c5ccccc5)n4)c3)cn2)CC1 [5-(1-(1-methylpiperidin-4-yl)-1H-pyrazol-4-yl)-3-(5-phenyl-1,2,4-oxadiazol-3-yl)pyridin-2-amine]
10 | < 500 | < 500 | < 500 | CN1CCC(n2cc(-c3cnc(N)c(-c4cc(-c5ccccc5)on4)c3)cn2)CC1 [5-(1-(1-methylpiperidin-4-yl)-1H-pyrazol-4-yl)-3-(5-phenylisoxazol-3-yl)pyridin-2-amine]
11 | < 500 | < 500 | < 500 | Nc1ncc(-c2cnn(C3CCNCC3)c2)cc1-c1nnc(-c2nc(C(F)(F)F)cs2)o1 [5-(1-(piperidin-4-yl)-1H-pyrazol-4-yl)-3-(5-(4-(trifluoromethyl)thiazol-2-yl)-1,3,4-oxadiazol-2-yl)pyridin-2-amine]
12 | < 500 | < 500 | 500 to 1000 | Nc1ncc(-c2cnn(C3CCNCC3)c2)cc1-c1nnc(-c2cnccn2)o1 [5-(1-(piperidin-4-yl)-1H-pyrazol-4-yl)-3-(5-(pyrazin-2-yl)-1,3,4-oxadiazol-2-yl)pyridin-2-amine]
13 | < 500 | < 500 | < 500 | Nc1ncc(-c2cnn(C3CCNCC3)c2)cc1-c1nnc(-c2ccccn2)o1 [5-(1-(piperidin-4-yl)-1H-pyrazol-4-yl)-3-(5-(pyridin-2-yl)-1,3,4-oxadiazol-2-yl)pyridin-2-amine]
14 | < 500 | < 500 | < 500 | Nc1ncc(-c2cnn(C3CCNCC3)c2)cc1-c1nnc(-c2cccnc2)o1 [5-(1-(piperidin-4-yl)-1H-pyrazol-4-yl)-3-(5-(pyridin-3-yl)-1,3,4-oxadiazol-2-yl)pyridin-2-amine]
15 | < 500 | < 500 | < 500 | Nc1ncc(-c2cnn(C3CCNCC3)c2)cc1-c1ncc(-c2cccnc2)o1 [5-(1-(piperidin-4-yl)-1H-pyrazol-4-yl)-3-(5-(pyridin-3-yl)oxazol-2-yl)pyridin-2-amine]
16 | < 500 | < 500 | < 500 | Nc1ncc(-c2cnn(C3CCNCC3)c2)cc1-c1nnc(-c2nccs2)o1 [5-(1-(piperidin-4-yl)-1H-pyrazol-4-yl)-3-(5-(thiazol-2-yl)-1,3,4-oxadiazol-2-yl)pyridin-2-amine]
17 | 1000 to 10000 | < 500 | 1000 to 10000 | Nc1ncc(-c2cnn(C3CCCCC3)c2)cc1-c1nc(-c2c(Cl)cccc2Cl)no1 [5-(1-cyclohexyl-1H-pyrazol-4-yl)-3-(3-(2,6-dichlorophenyl)-1,2,4-oxadiazol-5-yl)pyridin-2-amine]
18 | 1000 to 10000 | 1000 to 10000 | > 10000 | Nc1ncc(-c2cnn(C3CCCCC3)c2)cc1-c1nc(-c2ccccc2)no1 [5-(1-cyclohexyl-1H-pyrazol-4-yl)-3-(3-phenyl-1,2,4-oxadiazol-5-yl)pyridin-2-amine]
19 | > 10000 | > 10000 | > 10000 | Nc1ncc(-c2cnn(C3CCCCC3)c2)cc1-c1nnc(-c2c(Cl)cccc2Cl)o1 [5-(1-cyclohexyl-1H-pyrazol-4-yl)-3-(5-(2,6-dichlorophenyl)-1,3,4-oxadiazol-2-yl)pyridin-2-amine]
20 | > 10000 | > 10000 | > 10000 | Nc1ncc(-c2cnn(C3CCCCC3)c2)cc1-c1noc(-c2ccccc2)n1 [5-(1-cyclohexyl-1H-pyrazol-4-yl)-3-(5-phenyl-1,2,4-oxadiazol-3-yl)pyridin-2-amine]
21 | 1000 to 10000 | 1000 to 10000 | > 10000 | Nc1ncc(-c2cnn(C3CCCCC3)c2)cc1-c1nnc(-c2ccccc2)o1 [5-(1-cyclohexyl-1H-pyrazol-4-yl)-3-(5-phenyl-1,3,4-oxadiazol-2-yl)pyridin-2-amine]
22 | 1000 to 10000 | 1000 to 10000 | 1000 to 10000 | Nc1ncc(-c2cnn(C3CCCCC3)c2)cc1-c1ccc(-c2ccccc2)o1 [5-(1-cyclohexyl-1H-pyrazol-4-yl)-3-(5-phenylfuran-2-yl)pyridin-2-amine]
23 | 1000 to 10000 | 1000 to 10000 | 1000 to 10000 | Nc1ncc(-c2cnn(C3CCCCC3)c2)cc1-c1cc(-c2ccccc2)on1 [5-(1-cyclohexyl-1H-pyrazol-4-yl)-3-(5-phenylisoxazol-3-yl)pyridin-2-amine]
24 | 1000 to 10000 | 1000 to 10000 | > 10000 | Nc1ncc(-c2cnn(C3CCCCC3)c2)cc1-c1ncc(-c2ccccc2)o1 [5-(1-cyclohexyl-1H-pyrazol-4-yl)-3-(5-phenyloxazol-2-yl)pyridin-2-amine]
25 | 1000 to 10000 | 1000 to 10000 | 1000 to 10000 | Nc1ncc(-c2cnn(C3CCN(C(=O)C4CC4)CC3)c2)cc1-c1nc(-c2ccccc2)no1 [(4-(4-(6-amino-5-(3-phenyl-1,2,4-oxadiazol-5-yl)pyridin-3-yl)-1H-pyrazol-1-yl)piperidin-1-yl)(cyclopropyl)methanone]
26 | 1000 to 10000 | 1000 to 10000 | 1000 to 10000 | Nc1ncc(-c2cnn(C3CCN(C(=O)c4ccccc4)CC3)c2)cc1-c1nc(-c2ccccc2)no1 [(4-(4-(6-amino-5-(3-phenyl-1,2,4-oxadiazol-5-yl)pyridin-3-yl)-1H-pyrazol-1-yl)piperidin-1-yl)(phenyl)methanone]
27 | < 500 | < 500 | 1000 to 10000 | Nc1ncc(-c2cnn(C3CCN(C(=O)C4CC4)CC3)c2)cc1-c1nnc(-c2c(Cl)cccc2Cl)o1 [(4-(4-(6-amino-5-(5-(2,6-dichlorophenyl)-1,3,4-oxadiazol-2-yl)pyridin-3-yl)-1H-pyrazol-1-yl)piperidin-1-yl)(cyclopropyl)methanone]

— patent US11034685B2, “Aminopyridine derivatives as TAM family kinase inhibitors” (SignalChem Lifesciences Corporation, priority 2013, dated 2021)
